Source: patent US4791139A, “Diphenyl ether derivatives and their use as insecticides” (Imperial Chemical Industries PLC, priority 1986, dated 1988)

Columns and labels:
Assay type in all cases: in vivo
[1] = system: Musca domestica (houseflies - adults); assay: Contact test, houseflies - adults (MD), Cotton wool/sugar; settings: 24 h, 1 day, read-out: MD grading of mortality
Summary of the method: (§1)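 Product dissolved in acetone, then diluted with water holding 0.1% by weight wetting agent to give 100 to 500 ppm preparations. Pests were held on a host plant or foodstuff, and pests and/or medium were treated. Mortality was assessed one to seven days after treatment.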

[2] = system: Chilo partellus (Maize stemborer - larvae); assay: Residual test, Maize stemborer - larvae (CP), Oilseed rape; settings: 72 h, 3 days, read-out: CP grading of mortality
Protocol: The activity of the Product was determined using a variety of insect pests. The Product was used in the form of liquid preparations containing from 100 to 500 parts per million (ppm) by weight of the Product. The preparations were made by dissolving the Product in acetone and diluting the solutions with water containing 0.1% by weight of a wetting agent sold under the trade name "SYNPERONIC" NX until the liquid preparations contained the required concentration of the Product. "SYNPERONIC" is a Registered Trade Mark.
The test procedure adopted with regard to each pest was basically the same and comprised supporting a number of the pests on a medium which was usually a host plant or a foodstuff on which the pests feed, and treating either or both the pests and the medium with the preparations. The mortality of the pests was then assessed at periods usually varying from one to seven days after the treatment.
The results of the tests are given in Table III for each of the Products, at the rate in parts per million given in the second column as a grading of mortality designated as A, B or C wherein A indicates 80-100% mortality or knockdown (70-100% for Meloidogyne incognita), B indicates 50-79% mortality knockdown or knockdown (50-69% for Meloidogyne incognita) and C indicates less than 50% mortality or knockdown.
In Table III the pest organism used is designated by a letter code and the pests species, the support medium or food, and the type and duration of test is given in Table II.
(Maize stemborer - larvae)

[3] = system: Nilaparvata lugens (brown plant hopper - nymphs); assay: Contact test, brown plant hopper - nymphs (NL), Rice plant; settings: 72 h, 3 days, read-out: NL grading of mortality
Summary of the method: as §1

[4] = system: Diabrotica balteata (rootworm larvae); assay: Residual test, rootworm larvae (DB), Filter paper/maize seed; settings: 72 h, 3 days, read-out: DB grading of mortality
Summary of the method: as §1

[5] = system: Tetranychus urticae (spider mites - adult); assay: Contact test, spider mites - adult (TUa), French bean leaf; settings: 72 h, 3 days, read-out: TUA grading of mortality
Summary of the method: as §1

[6] = system: Meloidogyne incognita (Tomato root knot eelworm - larvae); assay: Residual test, Tomato root knot eelworm - larvae (MI), Semi in-vitro; settings: 168 h, application rate is half that recorded, 7 days, read-out: MI grading of mortality; for mortality at 125 µg/mL: rate 250 ppm; for mortality at 250 µg/mL: rate column 500 ppm
[7] = system: Musca domestica (houseflies - adults); assay: Knockdown test, houseflies - adults (MD/KD), Cotton wool/sugar; settings: 4 hours, read-out: MD/KD grading of knockdown
Summary of the method: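 Product was dissolved in acetone and diluted with water containing 0.1% wetting agent to 100–500 ppm. The flies and/or their food medium were treated with the preparation. Mortality was scored 1–7 days after treatment, with an additional knockdown assessment for houseflies.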

[8] = system: Tetranychus urticae (spider mites - ova); assay: Contact test, spider mites - ova (TUe), French bean leaf; settings: 144 h, 6 days, read-out: TUE grading of mortality
Summary of the method: as §1

Myzus persicae (aphids) = assay: Contact test, aphids (MP), Chinese Cabbage leaf; settings: 72 h, 3 days, read-out: MP grading of mortality
Summary of the method: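 Aphids on a host plant and/or the plant itself were treated with 100–500 ppm of product, applied from acetone diluted in water containing 0.1% SYNPERONIC NX wetting agent. Mortality was scored usually one to seven days after treatment.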

[9] = system: Heliothis virescens (tobacco budworm - larvae); assay: Residual test, tobacco budworm - larvae (HV), Cotton leaf; settings: 72 h, read-out: HV grading of mortality
Summary of the method: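 Products applied as acetone solutions diluted in water with 0.1% wetting agent, at 100–500 ppm; pests on host plant or food, with pests and/or medium treated. Mortality or knockdown scored 1–7 days after treatment and graded A (80–100%), B (50–79%) or C (<50%).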

[10] = system: Blattella germanica (cockroach nymphs); assay: Residual test, cockroach nymphs (BG), Plastic pot; settings: 72 h, 3 days, read-out: BG grading of mortality
Summary of the method: as §1

[11] = system: Spodoptera exigua (lesser army worm - larvae); assay: Residual test, lesser army worm - larvae (SP), Cotton leaf; settings: 72 h, 3 days, read-out: SP grading of mortality
Summary of the method: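 Compound dissolved in acetone and diluted in water with 0.1% Synperonic NX wetting agent to 100–500 ppm. Pests on host plant or food, with pests and/or medium treated. Mortality assessed 1–7 days after treatment and graded A (80–100%), B (50–79%) or C (<50%).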

SMILES	mortality at 250 ppm [1] [%]	mortality at 250 ppm [2] [%]	mortality at 250 ppm [3] [%]	mortality at 250 ppm [4] [%]	mortality at 250 ppm [5] [%]	mortality at 125 µg/mL [6] [%]	pest or weed control at 250 ppm [7] [%]	mortality at 250 ppm [8] [%]	mortality at 250 ppm (Myzus persicae (aphids)) [%]	mortality at 250 ppm [9] [%]	mortality at 250 ppm [10] [%]	mortality at 500 ppm [1] [%]	mortality at 500 ppm [3] [%]	mortality at 500 ppm [4] [%]	mortality at 500 ppm [5] [%]	pest or weed control at 500 ppm [7] [%]	mortality at 500 ppm [8] [%]	mortality at 500 ppm (Myzus persicae (aphids)) [%]	mortality at 500 ppm [10] [%]	mortality at 250 µg/mL [6] [%]	further results
CCOc1ccc(C(C/C=C/c2cccc(Oc3ccccc3)c2)C(F)(F)F)cc1 (stereo not shown) [Compound 34, 1,1,1-trifluoro-2-(4-ethoxyphenyl)-5-(3-phenoxyphenyl)pent-4-ene]	< 50	80 to 100	< 50	< 50	< 50	70 to 100	< 50	< 50	80 to 100	< 50	< 50										
CCOc1ccc(C(C/C=C\c2cccc(Oc3ccccc3)c2)C(F)(F)F)cc1 (stereo not shown) [Compound 35, 1,1,1-trifluoro-2-(4-ethoxyphenyl)-5-(3-phenoxyphenyl)pent-4-ene]	80 to 100	80 to 100	80 to 100	80 to 100	80 to 100	< 50	80 to 100	< 50	80 to 100	80 to 100	80 to 100										
CCOc1ccc(C(=CCCc2cccc(Oc3ccccc3)c2)C(F)(F)C(F)(F)F)cc1 [Compound 10, 3-(4-ethoxyphenyl)-1,1,1,2,2-pentafluoro-6-(3-phenoxyphenyl)hex-3-ene]	< 50	< 50	< 50	< 50	< 50	< 50	< 50	< 50	< 50	< 50	50 to 79										
CCOc1ccc(/C(=C\C=C\c2ccc(F)c(Oc3ccccc3)c2)C(F)(F)F)cc1 [Compound 36, 1,1,1-trifluoro-2-(4-ethoxyphenyl)-5-(4-fluoro-3-phenoxyphenyl)penta-2,4-diene]	80 to 100	80 to 100	80 to 100	80 to 100	< 50	50 to 69	80 to 100	< 50	80 to 100	80 to 100	80 to 100										
FC(F)(F)C(CCCc1cccc(Oc2ccccc2)c1)c1ccc(Cl)cc1 (racemic) [Compound 38, 1,1,1-Trifluoro-2-(4-chlorophenyl)-5-(3-phenoxyphenyl)pentane]												50 to 79	80 to 100	80 to 100	80 to 100	50 to 79	< 50	< 50	50 to 79		mortality at 500 ppm [2]: 80 to 100%
FC(F)(F)c1ccc(C(CCCc2cccc(Oc3ccccc3)c2)C(F)(F)F)cc1 (racemic) [Compound 16, 1,1,1-Trifluoro-2-(4-trifluoromethylphenyl)-5-(3-phenoxyphenyl)pentane]	80 to 100	80 to 100	80 to 100	80 to 100	50 to 79	< 50	80 to 100		80 to 100	80 to 100	80 to 100										
CCOc1ccc(C(=CCCc2cccc(Oc3ccccc3)c2)C(F)(F)F)cc1 [Compound 1, E,Z-2-(4-ethoxyphenyl)-5-(3-phenoxyphenyl)-1,1,1-trifluoropent-2-ene]												80 to 100	80 to 100	80 to 100		80 to 100		80 to 100	80 to 100	50 to 69	mortality at 500 ppm [2]: 80 to 100%; mortality at 500 ppm [9]: 80 to 100%
FC(F)(F)C(=CCCc1cccc(Oc2ccccc2)c1)c1ccc(Br)cc1 [Compound 39, 1,1,1-Trifluoro-2-(4-bromophenyl)-5-(3-phenoxyphenyl)-pent-2-ene]												< 50	< 50	< 50		< 50	< 50	< 50	50 to 79		mortality at 500 ppm [2]: 80 to 100%
CCOc1ccc(C(CCC(C#N)c2cccc(Oc3ccccc3)c2)C(F)(F)F)cc1 (racemic) [Compound 54, 1,1,1-Trifluoro-2-(4-ethoxyphenyl)-5-cyano-5-(3-phenoxyphenyl)pentane]												80 to 100	80 to 100	< 50	< 50	80 to 100	< 50	80 to 100	< 50	< 50	mortality at 500 ppm [11]: 80 to 100%; mortality at 500 ppm [9]: 80 to 100%
CCOc1ccc(C(CC=Cc2c(F)c(F)c(F)c(F)c2F)C(F)(F)F)cc1 (stereo not shown) [Compound 42, 1,1,1-Trifluoro-2-(4-ethoxyphenyl)-5-(pentafluorophenyl)pent-4-ene]												< 50	< 50	80 to 100	< 50	< 50	< 50	< 50	< 50	< 50	mortality at 500 ppm [11]: < 50%; mortality at 500 ppm [9]: < 50%
FC(F)C(F)(F)Oc1ccc(C(CCCc2cccc(Oc3ccccc3)c2)C(F)(F)F)cc1 (racemic) [Compound 63, 1,1,1-trifluoro-2-[4-(1,1,2,2-tetrafluoroethoxy)phenyl]-5-(3-phenoxyphenyl)pentane]												80 to 100	80 to 100	80 to 100	80 to 100	80 to 100	80 to 100	80 to 100	80 to 100	< 50	mortality at 500 ppm [11]: 80 to 100%; mortality at 500 ppm [9]: 80 to 100%
FC(F)(F)Oc1ccc(C(F)(CCCc2cccc(Oc3ccccc3)c2)C(F)(F)F)cc1 (racemic) [Compound 60, 1,1,1,2-tetrafluoro-2-(4-trifluoromethoxyphenyl)-5-(3-phenoxyphenyl)pentane]	80 to 100		80 to 100	80 to 100	80 to 100	< 50	80 to 100	80 to 100	80 to 100	80 to 100	80 to 100										mortality at 250 ppm ([11]; 250 ppm): 80 to 100%
